Measurements as given in ChEMBL document CHEMBL6092180 (Eur J Med Chem, 2024).
Converted amounts (≈) assume the structure as drawn.

Assays:
Format in all cases: functional
Cryptococcus neoformans = assay: Antifungal activity against Cryptococcus neoformans CGMCC 2.3161 assessed as inhibition of fungal growth by CLSI M27-A3 guidelines based method
Pichia kudriavzevii = assay: Antifungal activity against Candida krusei GIM 2.1 assessed as inhibition of fungal growth by CLSI M27-A3 guidelines based method
Candida albicans [1] = assay: Antifungal activity against Candida albicans SC5314 assessed as inhibition of fungal growth by CLSI M27-A3 guidelines based method
Candida tropicalis = assay: Antifungal activity against Candida tropicalis GIM 2.183 assessed as inhibition of fungal growth by CLSI M27-A3 guidelines based method
Candida albicans [2] = assay: Antifungal activity against Candida albicans GIM 2.194 assessed as inhibition of fungal growth by CLSI M27-A3 guidelines based method
Candida parapsilosis = assay: Antifungal activity against Candida parapsilosis GIM 2.190 assessed as inhibition of fungal growth by CLSI M27-A3 guidelines based method; details: Lodderomyces parapsilosis
Nakaseomyces glabratus = assay: Antifungal activity against Candida glabrata assessed as inhibition of fungal growth by CLSI M27-A3 guidelines based method

SMILES	MIC80 (Cryptococcus neoformans) [µg/mL]	MIC80 (Pichia kudriavzevii) [µg/mL]	MIC80 (Candida albicans [1]) [µg/mL]	MIC80 (Candida tropicalis) [µg/mL]	MIC80 (Candida albicans [2]) [µg/mL]	MIC80 (Candida parapsilosis) [µg/mL]	MIC80 (Nakaseomyces glabratus) [µg/mL]
C[C@@H](N(C)Cc1ccc(C#Cc2ccc(C(F)(F)F)cc2)cc1)[C@](O)(Cn1cncn1)c1ccc(F)cc1F	0.05 (≈ 0.0925 µM)	0.1 (≈ 0.185 µM)	0.025 (≈ 0.0463 µM)	0.013 (≈ 0.0241 µM)	0.05 (≈ 0.0925 µM)	0.013 (≈ 0.0241 µM)	0.05 (≈ 0.0925 µM)
CN(Cc1ccc(C#Cc2cccnc2)cc1)CC(O)(Cn1cncn1)c1ccc(F)cc1F (stereo unspecified)	0.05 (≈ 0.109 µM)	0.2 (≈ 0.435 µM)	0.013 (≈ 0.0283 µM)	0.013 (≈ 0.0283 µM)	0.025 (≈ 0.0544 µM)	0.05 (≈ 0.109 µM)	0.8 (≈ 1.74 µM)
CN(Cc1ccc(C#Cc2ccc(Br)cc2)cc1)CC(O)(Cn1cncn1)c1ccc(F)cc1F (stereo unspecified)	0.013 (≈ 0.0242 µM)	0.01 (≈ 0.0186 µM)	0.013 (≈ 0.0242 µM)	0.025 (≈ 0.0465 µM)	0.013 (≈ 0.0242 µM)	0.006 (≈ 0.0112 µM)	0.03 (≈ 0.0558 µM)
CN(Cc1ccc(C#Cc2ccc([N+](=O)[O-])cc2F)cc1)CC(O)(Cn1cncn1)c1ccc(F)cc1F (stereo unspecified)	0.025 (≈ 0.0479 µM)	0.05 (≈ 0.0959 µM)	0.006 (≈ 0.0115 µM)	0.006 (≈ 0.0115 µM)	0.006 (≈ 0.0115 µM)	0.006 (≈ 0.0115 µM)	0.03 (≈ 0.0575 µM)
CN(Cc1ccc(C#Cc2ccccc2Cl)cc1)CC(O)(Cn1cncn1)c1ccc(F)cc1F (stereo unspecified)	0.013 (≈ 0.0264 µM)	0.03 (≈ 0.0609 µM)	0.013 (≈ 0.0264 µM)	0.013 (≈ 0.0264 µM)	0.006 (≈ 0.0122 µM)	0.006 (≈ 0.0122 µM)	0.8 (≈ 1.62 µM)
CN(Cc1ccc(C#Cc2ccc(Cl)cc2)cc1)CC(O)(Cn1cncn1)c1ccc(F)cc1F (stereo unspecified)	0.013 (≈ 0.0264 µM)	0.03 (≈ 0.0609 µM)	0.006 (≈ 0.0122 µM)	0.013 (≈ 0.0264 µM)	0.013 (≈ 0.0264 µM)	0.006 (≈ 0.0122 µM)	0.05 (≈ 0.101 µM)
CN(Cc1ccc(C#Cc2cncnc2)cc1)CC(O)(Cn1cncn1)c1ccc(F)cc1F (stereo unspecified)	0.4 (≈ 0.869 µM)	0.8 (≈ 1.74 µM)	0.025 (≈ 0.0543 µM)	0.025 (≈ 0.0543 µM)	0.05 (≈ 0.109 µM)	0.025 (≈ 0.0543 µM)	3.2 (≈ 6.95 µM)
CN(Cc1ccc(C#Cc2ccc(-c3ccccc3)cc2)cc1)CC(O)(Cn1cncn1)c1ccc(F)cc1F (stereo unspecified)	0.05 (≈ 0.0935 µM)	0.2 (≈ 0.374 µM)	0.05 (≈ 0.0935 µM)	0.05 (≈ 0.0935 µM)	0.013 (≈ 0.0243 µM)	0.05 (≈ 0.0935 µM)	0.4 (≈ 0.748 µM)
CN(Cc1ccc(C#Cc2ccc(F)c(F)c2)cc1)CC(O)(Cn1cncn1)c1ccc(F)cc1F (stereo unspecified)	0.013 (≈ 0.0263 µM)	0.01 (≈ 0.0202 µM)	0.006 (≈ 0.0121 µM)	0.006 (≈ 0.0121 µM)	0.006 (≈ 0.0121 µM)	0.006 (≈ 0.0121 µM)	0.03 (≈ 0.0607 µM)
CN(Cc1ccc(C#Cc2ccc(C#N)cc2)cc1)CC(O)(Cn1cncn1)c1ccc(F)cc1F (stereo unspecified)	0.05 (≈ 0.103 µM)	0.1 (≈ 0.207 µM)	0.013 (≈ 0.0269 µM)	0.013 (≈ 0.0269 µM)	0.006 (≈ 0.0124 µM)	0.006 (≈ 0.0124 µM)	0.1 (≈ 0.207 µM)
CN(Cc1ccc(C#Cc2ccccc2F)cc1)CC(O)(Cn1cncn1)c1ccc(F)cc1F (stereo unspecified)	0.006 (≈ 0.0126 µM)	0.01 (≈ 0.021 µM)	0.006 (≈ 0.0126 µM)	0.006 (≈ 0.0126 µM)	0.013 (≈ 0.0273 µM)	0.006 (≈ 0.0126 µM)	0.05 (≈ 0.105 µM)
Cc1ccc(C#Cc2ccc(CN(C)CC(O)(Cn3cncn3)c3ccc(F)cc3F)cc2)cc1 (stereo unspecified)	0.013 (≈ 0.0275 µM)	0.2 (≈ 0.423 µM)	0.013 (≈ 0.0275 µM)	0.013 (≈ 0.0275 µM)	0.013 (≈ 0.0275 µM)	0.013 (≈ 0.0275 µM)	0.4 (≈ 0.846 µM)
CN(Cc1ccc(C#Cc2ccc(F)cc2)cc1)CC(O)(Cn1cncn1)c1ccc(F)cc1F (stereo unspecified)	0.013 (≈ 0.0273 µM)	0.05 (≈ 0.105 µM)	0.006 (≈ 0.0126 µM)	0.013 (≈ 0.0273 µM)	0.006 (≈ 0.0126 µM)	0.006 (≈ 0.0126 µM)	0.03 (≈ 0.063 µM)
CN(Cc1ccc(C#Cc2ccc(OC(F)(F)F)cc2)cc1)CC(O)(Cn1cncn1)c1ccc(F)cc1F (stereo unspecified)	0.05 (≈ 0.0922 µM)	0.2 (≈ 0.369 µM)	0.025 (≈ 0.0461 µM)	0.013 (≈ 0.024 µM)	0.013 (≈ 0.024 µM)	0.013 (≈ 0.024 µM)	0.2 (≈ 0.369 µM)
CN(Cc1ccc(C#Cc2ccc(C(F)(F)F)cc2)cc1)CC(O)(Cn1cncn1)c1ccc(F)cc1F (stereo unspecified)	0.05 (≈ 0.095 µM)	0.2 (≈ 0.38 µM)	0.1 (≈ 0.19 µM)	0.05 (≈ 0.095 µM)	0.025 (≈ 0.0475 µM)	0.1 (≈ 0.19 µM)	0.2 (≈ 0.38 µM)
CC(C)c1ccc(C#Cc2ccc(CN(C)CC(O)(Cn3cncn3)c3ccc(F)cc3F)cc2)cc1 (stereo unspecified)	0.025 (≈ 0.0499 µM)	0.2 (≈ 0.4 µM)	0.013 (≈ 0.026 µM)	0.013 (≈ 0.026 µM)	0.025 (≈ 0.0499 µM)	0.05 (≈ 0.0999 µM)	0.1 (≈ 0.2 µM)
CN(Cc1ccc(C#Cc2ccccn2)cc1)CC(O)(Cn1cncn1)c1ccc(F)cc1F (stereo unspecified)	0.2 (≈ 0.435 µM)	0.4 (≈ 0.871 µM)	0.013 (≈ 0.0283 µM)	0.013 (≈ 0.0283 µM)	0.25 (≈ 0.544 µM)	0.05 (≈ 0.109 µM)	1.6 (≈ 3.48 µM)
CCc1ccc(C#Cc2ccc(CN(C)CC(O)(Cn3cncn3)c3ccc(F)cc3F)cc2)cc1 (stereo unspecified)	0.025 (≈ 0.0514 µM)	0.05 (≈ 0.103 µM)	0.013 (≈ 0.0267 µM)	0.013 (≈ 0.0267 µM)	0.013 (≈ 0.0267 µM)	0.013 (≈ 0.0267 µM)	0.1 (≈ 0.206 µM)
